System: M. tuberculosis H37Rv growth inhibition
Experiment: M. tuberculosis H37Rv growth inhibitors, H37Rv strain (AID 1626)
Conditions: for IC90: measured here: IC90 against H37Rv; for CC50: measured here: Vero cell cytotoxicity

N#CC(C(=O)C12CC3CC(CC(C3)C1)C2)c1nc2ccccc2[nH]1 (stereo not drawn)
IC50: 9.8 µM
IC90: > 100 µM
CC50: > 40 µM

CCOC(=O)c1ccc(COC(=O)c2ccc(-c3nnc(-c4ccccc4)o3)cc2)o1
IC50: 23.4 µM
IC90: > 100 µM
CC50: > 40 µM

c1ccc2c(-c3nc(C4CCCCC4)no3)cc(-c3ccncc3)nc2c1
IC50: 7 µM
IC90: 10.9 µM
CC50: > 40 µM

CCn1ccnc1CN(C)Cc1cn(-c2cccc(C)c2)nc1-c1cccc(F)c1
IC50: 2.58 µM
IC90: 4.19 µM
CC50: > 40 µM

CCn1c(CNc2ccc(F)cc2)nnc1SCC(=O)OC1CCCCC1
IC50: 12 µM
IC90: 13.7 µM

O=C(CCSc1ccc(Cl)cc1)c1cccs1
IC90: > 100 µM

Cc1cccc(-c2ncc(CN3CCC(CO)(CCCc4ccccc4)CC3)cn2)c1
IC50: 13.2 µM
IC90: 40.7 µM
CC50: > 40 µM

CCOc1ccc(NC(C(=O)Nc2cccc(C(C)=O)c2)c2ccccc2)cc1 (stereo not drawn)
IC90: > 100 µM

COc1ccc(NC(=O)CN(C)CC(=O)Nc2ccc3c(c2)CCC3)cc1
IC50: 20.6 µM
IC90: > 100 µM

O=C(NC1CCCCCCC1)c1ccccc1-c1ccccc1
IC50: 57.1 µM
IC90: > 100 µM

CCCSc1ccc(C(=O)Nc2ccc(Cl)cc2)cn1
IC50: 27.9 µM
IC90: > 100 µM

O=[N+]([O-])c1ccc(COc2ccc(-c3[nH]ncc3-c3ccc(Cl)cc3)c(O)c2)cc1
IC50: 23 µM
IC90: > 100 µM
CC50: > 40 µM

CCOC(=O)c1cc(-c2csc(-c3ccc(C(F)(F)F)cc3)n2)on1
IC50: < 0.195 µM
IC90: 3.33 µM

Cc1cc(=O)oc2ccc(OC(=O)CC(C)C)cc12
IC90: > 100 µM

c1coc(CNc2nc(N3CCCCC3)nc3ccccc23)c1
IC50: 1.49 µM
IC90: 1.69 µM
CC50: > 40 µM

CC[C@H]1CC2CN3CCc4c([nH]c5c([C@H]6C[C@H]7[C@H](CC)CN(C)[C@@H](Cc8c6[nH]c6ccccc86)[C@H]7C(=O)OC)c(OC)ccc45)C(C(=O)OC)(C2)C13
IC50: 5.85 µM
IC90: 7.6 µM
CC50: 20.8 µM

N#CC1=C(N)NC(SCC(=O)c2ccccc2)=C(C#N)C12CCCC2
IC50: 7.73 µM
IC90: > 100 µM

CCCCCCCOc1ccc(OC(=O)c2cccnc2)cc1
IC50: 6.32 µM
IC90: > 100 µM
CC50: 15.4 µM

CCOc1ccc(NC(=O)CSC2=NCCN2)cc1
IC50: 11.6 µM
IC90: > 100 µM

O=C(/C=C/c1cn(CC(O)CN2CCCCCC2)c2ccccc12)c1cccs1 (stereo not drawn)
IC50: 0.993 µM
IC90: 1.95 µM
CC50: 20 µM

CCOC(=O)N1CCN(C(=O)CSc2nnc(COc3ccccc3)o2)CC1
IC50: 24.7 µM
IC90: 40 µM

Cc1ccc(NC(=O)NCC2CCN(Cc3cccc(Cl)c3)CC2)cc1Cl
IC50: 11.6 µM
IC90: 31.2 µM
CC50: 29.4 µM

COc1cc2c(cc1NCc1ccccn1)oc1ccccc12
IC50: 3.09 µM
IC90: 21.4 µM

COc1ccc(Nc2nc(C)c3ccccc3n2)cc1
CC50: > 40 µM

COc1cccc(CNc2ccccc2O)c1OCc1ccccc1F
IC90: > 100 µM
CC50: > 40 µM

COc1ccc2nc(C)cc(SCC(=O)OC(C)C)c2c1
IC50: 9.36 µM
IC90: 13.8 µM

CCN(Cc1nc2ccccc2c(=O)[nH]1)Cc1nc2ccsc2c(=O)[nH]1
IC50: 15.8 µM
IC90: > 100 µM
CC50: > 40 µM

Cc1nc(N)nc(N)c1/C=C/C(C)(C)c1ccc(Cl)cc1
IC50: 0.562 µM
IC90: 1.29 µM
CC50: < 0.078 µM

COc1ccc(N=c2cc(-c3ccc(O)cc3)oc3ccccc23)cc1
IC50: 5.8 µM
IC90: 9.5 µM
CC50: 34.3 µM

CCOC(=O)CSc1nc(N)c(C#N)c(CC(C)C)c1C#N
IC50: 1.44 µM
IC90: 8.77 µM

COC(=O)CSc1nc2ccc(NC(=O)c3ccccc3C(=O)N3CCOCC3)cc2s1
IC50: 8.89 µM
IC90: > 100 µM

Cc1ccc(Sc2cc(C)nc(-c3ccccn3)n2)cc1
IC50: 2.26 µM
IC90: 15.7 µM
CC50: 10.8 µM

O=C(OCC#CCSc1nc2ccccc2o1)c1cc2ccccc2o1
IC50: 5.72 µM
IC90: 12.7 µM
CC50: > 40 µM
